Experiments:
Assay type in all cases: in vivo
[1] = tested on: ivy-leaved morning glory (Ipomoea hederacea); experiment: Test G Post-Emergence Protocol; conditions: Ipomoea, post-emergence, 312 h; for pest or weed control at 15.625 g/ha: 15.625 g ai/ha, evaluated after 13 days (100=total damage to plant; 0=no damage to plant), read-out: Morningglory, Ivy-leaved damage rating; for pest or weed control at 62.5 g/ha: 62.5 g ai/ha, read-out: Morningglory, Ivy-leaved damage rating (100=total damage to plant; 0=no damage to plant); for pest or weed control at 62.5 g/ha / pest or weed control at 250 g/ha: evaluated after 13 days; for pest or weed control at 250 g/ha: 250 g ai/ha, read-out: damage to plant, Morningglory, Ivy-leaved (100=total damage to plant; 0=no damage to plant)
In short: (§1)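 Scores run 0 (no damage) to 100 (total damage) and were taken 13 days after spraying. Plants had been raised in pots for 8 days under glasshouse control (24/16 °C, 14 h photoperiod, 65% humidity) and then treated at 15.625, 62.5 or 250 g/ha.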

[2] = tested on: redroot pigweed (Amaranthus retroflexus); experiment: Test G Post-Emergence Protocol; conditions: Amaranthus retroflexus, post-emergence, 312 h; for pest or weed control at 15.625 g/ha: 15.625 g ai/ha, evaluated after 13 days (100=total damage to plant; 0=no damage to plant), read-out: Pigweed, Redroot damage rating; for pest or weed control at 62.5 g/ha: 62.5 g ai/ha, read-out: Pigweed, Redroot damage rating (100=total damage to plant; 0=no damage to plant); for pest or weed control at 62.5 g/ha / pest or weed control at 250 g/ha: evaluated after 13 days; for pest or weed control at 250 g/ha: 250 g ai/ha, read-out: damage to plant, Pigweed, Redroot (100=total damage to plant; 0=no damage to plant)
In short: as §1

[3] = tested on: velvetleaf (Abutilon theophrasti); experiment: Test G Post-Emergence Protocol; conditions: Abutilon theophrasti, post-emergence, 312 h; for pest or weed control at 15.625 g/ha: 15.625 g ai/ha, evaluated after 13 days (100=total damage to plant; 0=no damage to plant), read-out: Velvetleaf damage rating; for pest or weed control at 62.5 g/ha: 62.5 g ai/ha, read-out: Velvetleaf damage rating (100=total damage to plant; 0=no damage to plant); for pest or weed control at 62.5 g/ha / pest or weed control at 250 g/ha: evaluated after 13 days; for pest or weed control at 250 g/ha: 250 g ai/ha, read-out: damage to plant, Velvetleaf (100=total damage to plant; 0=no damage to plant)
In short: as §1

[4] = tested on: giant foxtail (Setaria faberi); experiment: Test G Post-Emergence Protocol; conditions: Setaria faberi, post-emergence, 312 h; for pest or weed control at 15.625 g/ha: 15.625 g ai/ha, evaluated after 13 days (100=total damage to plant; 0=no damage to plant), read-out: Foxtail, Giant damage rating; for pest or weed control at 62.5 g/ha: 62.5 g ai/ha, read-out: Foxtail, Giant damage rating (100=total damage to plant; 0=no damage to plant); for pest or weed control at 62.5 g/ha / pest or weed control at 250 g/ha: evaluated after 13 days; for pest or weed control at 250 g/ha: 250 g ai/ha, read-out: damage to plant, Foxtail, Giant (100=total damage to plant; 0=no damage to plant)
In short: as §1

corn (Zea mays) [5] = experiment: Test G Post-Emergence Protocol; conditions: Zea mays, post-emergence, 312 h; for plant injury at 15.625 g/ha: 15.625 g ai/ha, evaluated after 13 days (100=total damage to plant; 0=no damage to plant), read-out: Corn damage rating; for plant injury at 62.5 g/ha: 62.5 g ai/ha, read-out: Corn damage rating (100=total damage to plant; 0=no damage to plant); for plant injury at 62.5 g/ha / plant injury at 250 g/ha: evaluated after 13 days; for plant injury at 250 g/ha: 250 g ai/ha, read-out: damage to plant, Corn (100=total damage to plant; 0=no damage to plant)
In short: as §1

[6] = tested on: barnyardgrass (Echinochloa crus-galli); experiment: Test G Post-Emergence Protocol; conditions: Echinochloa crus-galli, post-emergence, 312 h; for pest or weed control at 15.625 g/ha: 15.625 g ai/ha, evaluated after 13 days (100=total damage to plant; 0=no damage to plant), read-out: Barnyardgrass damage rating; for pest or weed control at 62.5 g/ha: 62.5 g ai/ha, read-out: Barnyardgrass damage rating (100=total damage to plant; 0=no damage to plant); for pest or weed control at 62.5 g/ha / pest or weed control at 250 g/ha: evaluated after 13 days; for pest or weed control at 250 g/ha: 250 g ai/ha, read-out: damage to plant, Barnyardgrass (100=total damage to plant; 0=no damage to plant)
In short: as §1

[7] = tested on: ivy-leaved morning glory (Ipomoea hederacea); experiment: Test G Pre-Emergence Protocol; conditions: Ipomoea, pre-emergence, 312 h, evaluated after 13 days; for pest or weed control at 15.625 g/ha: 15.625 g ai/ha, read-out: Morning-glory, Ivy-leaved damage rating (100=total damage to plant; 0=no damage to plant); for pest or weed control at 62.5 g/ha: 62.5 g ai/ha, 100=total damage to plant, 0=no damage to plant, read-out: plant damage rating, Morningglory, Ivy-leaved; for pest or weed control at 250 g/ha: 250 g ai/ha, read-out: Morningglory, Ivy-leaved damage rating (100=total damage to plant; 0=no damage to plant)
In short: (§2)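 Scores are visual damage ratings from 0 (no damage) to 100 (total plant kill), taken 13 days after treatment. Compound was sprayed one day post-sowing at 15.625, 62.5 or 250 g/ha in 50:50 acetone/water with 0.5% Tween 20.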

[8] = tested on: redroot pigweed (Amaranthus retroflexus); experiment: Test G Pre-Emergence Protocol; conditions: Amaranthus retroflexus, pre-emergence, 312 h, evaluated after 13 days; for pest or weed control at 15.625 g/ha: 15.625 g ai/ha; for pest or weed control at 15.625 g/ha / pest or weed control at 250 g/ha: read-out: Pigweed, Redroot damage rating (100=total damage to plant; 0=no damage to plant); for pest or weed control at 62.5 g/ha: 62.5 g ai/ha, 100=total damage to plant, 0=no damage to plant, read-out: plant damage rating, Pigweed, Redroot; for pest or weed control at 250 g/ha: 250 g ai/ha
In short: as §2

[9] = tested on: velvetleaf (Abutilon theophrasti); experiment: Test G Pre-Emergence Protocol; conditions: Abutilon theophrasti, pre-emergence, 312 h, evaluated after 13 days; for pest or weed control at 15.625 g/ha: 15.625 g ai/ha; for pest or weed control at 15.625 g/ha / pest or weed control at 250 g/ha: read-out: Velvetleaf damage rating (100=total damage to plant; 0=no damage to plant); for pest or weed control at 62.5 g/ha: 62.5 g ai/ha, 100=total damage to plant, 0=no damage to plant, read-out: plant damage rating, Velvetleaf; for pest or weed control at 250 g/ha: 250 g ai/ha
In short: as §2

[10] = tested on: giant foxtail (Setaria faberi); experiment: Test G Pre-Emergence Protocol; conditions: Setaria faberi, pre-emergence, 312 h, evaluated after 13 days; for pest or weed control at 15.625 g/ha: 15.625 g ai/ha; for pest or weed control at 15.625 g/ha / pest or weed control at 250 g/ha: read-out: Foxtail, Giant damage rating (100=total damage to plant; 0=no damage to plant); for pest or weed control at 62.5 g/ha: 62.5 g ai/ha, 100=total damage to plant, 0=no damage to plant, read-out: plant damage rating, Foxtail, Giant; for pest or weed control at 250 g/ha: 250 g ai/ha
In short: as §2

corn (Zea mays) [11] = experiment: Test G Pre-Emergence Protocol; conditions: Zea mays, pre-emergence, 312 h, evaluated after 13 days; for plant injury at 15.625 g/ha: 15.625 g ai/ha; for plant injury at 15.625 g/ha / plant injury at 250 g/ha: read-out: Corn damage rating (100=total damage to plant; 0=no damage to plant); for plant injury at 62.5 g/ha: 62.5 g ai/ha, 100=total damage to plant, 0=no damage to plant, read-out: plant damage rating, Corn; for plant injury at 250 g/ha: 250 g ai/ha
In short: as §2

[12] = tested on: barnyardgrass (Echinochloa crus-galli); experiment: Test G Pre-Emergence Protocol; conditions: Echinochloa crus-galli, pre-emergence, 312 h, evaluated after 13 days; for pest or weed control at 15.625 g/ha: 15.625 g ai/ha, read-out: Barnyard grass damage rating (100=total damage to plant; 0=no damage to plant); for pest or weed control at 62.5 g/ha: 62.5 g ai/ha, 100=total damage to plant, 0=no damage to plant, read-out: plant damage rating, Barnyardgrass; for pest or weed control at 250 g/ha: 250 g ai/ha, read-out: Barnyardgrass damage rating (100=total damage to plant; 0=no damage to plant)
In short: as §2

CN1C[C@@H](c2ccc(C(F)(F)F)cc2)[C@H](C(=O)Nc2ccccc2C#N)C1=O (racemic) [Compound 1599]
20%: pest or weed control at 250 g/ha [9] | pest or weed control at 15.625 g/ha [10]
70%: pest or weed control at 62.5 g/ha [6] | pest or weed control at 250 g/ha [6] | pest or weed control at 250 g/ha [8] | pest or weed control at 62.5 g/ha [12] | pest or weed control at 250 g/ha [12]
0%: pest or weed control at 15.625 g/ha [2] | pest or weed control at 15.625 g/ha [3] | plant injury at 15.625 g/ha (corn (Zea mays) [5]) | plant injury at 62.5 g/ha (corn (Zea mays) [5]) | pest or weed control at 15.625 g/ha [8] | pest or weed control at 15.625 g/ha [9] | plant injury at 15.625 g/ha (corn (Zea mays) [11]) | pest or weed control at 15.625 g/ha [12]
60%: pest or weed control at 62.5 g/ha [1] | pest or weed control at 15.625 g/ha [4] | pest or weed control at 62.5 g/ha [10]
80%: pest or weed control at 62.5 g/ha [4] | pest or weed control at 250 g/ha [4] | pest or weed control at 250 g/ha [10]
50%: pest or weed control at 15.625 g/ha [1] | pest or weed control at 250 g/ha [1] | pest or weed control at 62.5 g/ha [2] | pest or weed control at 250 g/ha [2]
10%: pest or weed control at 15.625 g/ha [6] | pest or weed control at 15.625 g/ha [7] | pest or weed control at 62.5 g/ha [7] | pest or weed control at 250 g/ha [7] | plant injury at 62.5 g/ha (corn (Zea mays) [11])
30%: pest or weed control at 62.5 g/ha [3] | pest or weed control at 62.5 g/ha [9]
40%: pest or weed control at 250 g/ha [3] | plant injury at 250 g/ha (corn (Zea mays) [5]) | pest or weed control at 62.5 g/ha [8] | plant injury at 250 g/ha (corn (Zea mays) [11])

CN1C[C@@H](c2ccc(C(F)(F)F)cc2)[C@H](C(=O)Nc2ccc(Cl)cc2F)C1=O (racemic) [Compound 1602]
50%: pest or weed control at 62.5 g/ha [1] | pest or weed control at 250 g/ha [1] | pest or weed control at 62.5 g/ha [2]
0%: pest or weed control at 15.625 g/ha [2] | pest or weed control at 15.625 g/ha [3] | pest or weed control at 15.625 g/ha [4] | plant injury at 15.625 g/ha (corn (Zea mays) [5]) | plant injury at 62.5 g/ha (corn (Zea mays) [5]) | pest or weed control at 15.625 g/ha [6] | pest or weed control at 15.625 g/ha [7] | pest or weed control at 62.5 g/ha [7] | pest or weed control at 250 g/ha [7] | pest or weed control at 15.625 g/ha [8] | pest or weed control at 15.625 g/ha [9] | pest or weed control at 62.5 g/ha [9] | pest or weed control at 15.625 g/ha [10] | plant injury at 15.625 g/ha (corn (Zea mays) [11]) | plant injury at 62.5 g/ha (corn (Zea mays) [11]) | plant injury at 250 g/ha (corn (Zea mays) [11]) | pest or weed control at 15.625 g/ha [12] | pest or weed control at 62.5 g/ha [12]
60%: pest or weed control at 62.5 g/ha [4]
40%: pest or weed control at 250 g/ha [3] | pest or weed control at 250 g/ha [6] | pest or weed control at 250 g/ha [8] | pest or weed control at 250 g/ha [12]
10%: pest or weed control at 15.625 g/ha [1] | pest or weed control at 250 g/ha [9]
70%: pest or weed control at 250 g/ha [2] | pest or weed control at 250 g/ha [10]
20%: pest or weed control at 62.5 g/ha [3] | plant injury at 250 g/ha (corn (Zea mays) [5]) | pest or weed control at 62.5 g/ha [6]
30%: pest or weed control at 62.5 g/ha [8] | pest or weed control at 62.5 g/ha [10]
80%: pest or weed control at 250 g/ha [4]

— patent publication US12077503B2, “Substituted cyclic amides and their use as herbicides” (FMC CORPORATION, priority 2015, dated 2024)
